IC50 data for 27 molecules are collected here from ChEMBL document CHEMBL1139424, “Design, synthesis, and acetylcholinesterase inhibitory activity of novel coumarin analogues” (Bioorg Med Chem, 2008).

The test has as its target Acetylcholinesterase (Electrophorus electricus, UniProt O42275). As to the kind of experiment: Inhibition of Electrophorus electricus brain AChE by Ellman's method. (DTNB colorimetry detects thiols as they appear.)

Acetylcholinesterase, sequence (O42275 whole entry): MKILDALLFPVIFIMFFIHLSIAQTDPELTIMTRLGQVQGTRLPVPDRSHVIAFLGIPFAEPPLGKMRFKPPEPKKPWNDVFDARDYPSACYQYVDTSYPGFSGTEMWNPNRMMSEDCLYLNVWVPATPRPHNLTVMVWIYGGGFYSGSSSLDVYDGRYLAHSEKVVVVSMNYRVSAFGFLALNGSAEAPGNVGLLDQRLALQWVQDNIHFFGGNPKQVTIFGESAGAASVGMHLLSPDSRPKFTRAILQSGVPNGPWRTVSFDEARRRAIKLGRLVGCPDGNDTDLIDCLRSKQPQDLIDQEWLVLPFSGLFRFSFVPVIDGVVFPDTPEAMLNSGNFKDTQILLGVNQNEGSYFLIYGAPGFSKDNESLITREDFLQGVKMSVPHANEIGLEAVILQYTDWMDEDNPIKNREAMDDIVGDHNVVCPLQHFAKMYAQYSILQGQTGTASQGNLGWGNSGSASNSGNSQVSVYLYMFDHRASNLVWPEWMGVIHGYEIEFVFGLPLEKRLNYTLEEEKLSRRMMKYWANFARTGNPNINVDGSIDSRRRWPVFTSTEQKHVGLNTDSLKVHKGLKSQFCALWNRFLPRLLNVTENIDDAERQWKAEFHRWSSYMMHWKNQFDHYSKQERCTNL

For the molecule `COc1ccc(N2CCN(c3cc(=O)oc4ccc(C)cc34)CC2)cc1`, half-maximal inhibition (IC50) required 18 µM.

Regarding `O=C(c1cc2ccccc2oc1=O)N1CCOCC1`, the half-inhibitory concentration (IC50) stood at 101 µM. `Cc1ccc2oc(=O)cc(N3CCN(c4ccc(Cl)cc4)CC3)c2c1` yielded a concentration for half-maximal inhibition (IC50) of 808 µM. In the case of `Cc1ccc(C(=O)N2CCN(c3cc(=O)oc4ccc(C)cc34)CC2)cc1`, the midpoint of inhibition, the IC50, lay at 5.3 µM. Under `O=C(c1cc2ccccc2oc1=O)N1CCN(c2cc(Cl)ccc2Cl)CC1` stands 14 µM.

In turn, `Cc1ccc2oc(=O)cc(N3CCN(C(=O)c4ccccc4Cl)CC3)c2c1` registered an IC50 of 21 µM. In the case of `Cc1ccc2oc(=O)cc(N3CCN(c4ccccc4)CC3)c2c1`, inhibition was half-maximal at 4.5 µM (IC50). For the molecule `Cc1ccc(N2CCN(C(=O)c3cc4ccccc4oc3=O)CC2)cc1`, the IC50 amounted to 7.6 µM. Under `Cc1ccc2oc(=O)cc(N3CCN(C)CC3)c2c1` stands 901 µM; under `Cc1ccccc1N1CCN(C(=O)c2cc3ccccc3oc2=O)CC1`, 6.7 µM.

As for `Cc1ccc(N2CCN(c3cc(=O)oc4ccc(C)cc34)CC2)cc1`, the 50% inhibitory concentration (IC50) is 61 µM.

In the case of `Cc1ccc2oc(=O)cc(N3CCN(C(=O)c4ccc(Cl)cc4)CC3)c2c1`, the IC50 is 16 µM. Compared with the last molecule, the IC50 is about 3.8-fold lower. `O=c1cc(Cl)c2cc(CN3CCN(c4ccccc4)CC3)ccc2o1` had an IC50 of 19 µM. The IC50 values of the last two molecules are within 1.5-fold of each other.

The molecule `O=C(c1cc2ccccc2oc1=O)N1CCN(c2ccccc2)CC1` had an IC50 of 9.3 µM. This IC50 is about 2-fold lower than that of the molecule before. As for `O=C(c1ccccc1)N1CCN(C(=O)c2cc3ccccc3oc2=O)CC1`, the IC50 came to 15 µM. Compared with the last molecule, the IC50 is about 1.6-fold higher. Under `O=C(c1ccccc1Cl)N1CCN(C(=O)c2cc3ccccc3oc2=O)CC1` stands 26 µM.

Molecule `COc1ccccc1N1CCN(C(=O)c2cc3ccccc3oc2=O)CC1` registered an IC50 of 11 µM. Under `Cc1ccc2oc(=O)cc(N3CCN(c4cc(Cl)ccc4Cl)CC3)c2c1` stands 827 µM. Turning to `Cc1ccc2oc(=O)cc(N3CCOCC3)c2c1`, the IC50 was determined as 875 µM. On to `O=C(c1cc2ccccc2oc1=O)N1CCN(c2ccc(Cl)cc2)CC1`, for which the IC50 stood at 98 µM. Compared with the last molecule, the IC50 is about 8.9-fold lower. The same measure for `COc1ccc(N2CCN(C(=O)c3cc4ccccc4oc3=O)CC2)cc1`: 7.5 µM; for `Cc1ccc2oc(=O)cc(N3CCN(C(=O)c4ccccc4)CC3)c2c1`: 7.4 µM; for `COc1ccccc1N1CCN(c2cc(=O)oc3ccc(C)cc23)CC1`: 249 µM.

Molecule `Cc1ccc(C(=O)N2CCN(C(=O)c3cc4ccccc4oc3=O)CC2)cc1` came in with a concentration for half-maximal inhibition (IC50) of 18 µM. Under `Cc1ccc2oc(=O)cc(N3CCN(c4ccccc4C)CC3)c2c1` stands 7.9 µM; under `O=C(c1ccc(Cl)cc1)N1CCN(C(=O)c2cc3ccccc3oc2=O)CC1`, 21 µM. The same measure for `O=C(c1ccc([N+](=O)[O-])cc1)N1CCN(C(=O)c2cc3ccccc3oc2=O)CC1`: 34 µM.

The IC50 is the concentration that gives 50% inhibition.
